Data published in patent US8680110B2, “P2X4 receptor antagonist” (Nippon Chemiphar Co., Ltd., priority 2010, dated 2014).
Where a name gives a salt, the structure may show the parent alone.

Target: T1, human P2X4 receptors (Homo sapiens, UniProt Q99571)
T1 sequence (Q99571 1-388): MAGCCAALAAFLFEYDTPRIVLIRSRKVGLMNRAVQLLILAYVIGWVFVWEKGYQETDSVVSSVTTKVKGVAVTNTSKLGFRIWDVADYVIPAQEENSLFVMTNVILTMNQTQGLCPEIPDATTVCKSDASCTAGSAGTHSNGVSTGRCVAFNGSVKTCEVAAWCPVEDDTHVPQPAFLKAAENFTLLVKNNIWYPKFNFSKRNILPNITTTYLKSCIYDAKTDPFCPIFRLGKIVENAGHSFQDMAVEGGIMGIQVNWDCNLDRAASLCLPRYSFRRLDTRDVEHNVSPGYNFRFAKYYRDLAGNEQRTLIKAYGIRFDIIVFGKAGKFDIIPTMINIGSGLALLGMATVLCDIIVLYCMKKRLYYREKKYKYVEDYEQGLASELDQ
Assay: P2X4 receptor antagonism, intracellular calcium assay (Fura-2 AM) in 1321N1 cells
Assay type: cell-based
Settings: 1321N1 cells stably expressing human P2X4 receptors; compound added 15 minutes before ATP; ATP-induced calcium influx; read-out: Inhibition activities (IC50 μM)
Experimental: 1321N1 cells stably expressing human P2X4 receptors were plated in 96-well assay plate and cultured 24 hours at 37° C. in an atmosphere of 5% CO2 for intracellular calcium assay. Fura-2 AM calcium fluorescent indicator was used for the intracellular calcium assay. Fura-2 AM was dissolved in an assay buffer, and the solution was loaded onto cells. The obtained plate was used for fluorescent assay. Test compounds were treated to cells 15 minutes before the addition of ATP, and the response to intracellular calcium influx induced by addition of ATP was monitored by a micro plate reader. The fluorescence ratio of excitations wavelengths of 340 nm and 380 nm was used as the index of intracellular calcium change. The inhibition activities of the test compounds were calculated by comparison with the absence of the test compound (control).
P2X4 receptor antagonism of the compound of the present invention was measured as described below. […]
Test compounds were treated to cells 15 minutes before the addition of ATP, and the response to intracellular calcium influx induced by addition of ATP was monitored by a micro plate reader. The fluorescence ratio of excitations wavelengths of 340 nm and 380 nm was used as the index of intracellular calcium change. The inhibition activities of the test compounds were calculated by comparison with the absence of the test compound (control).

IC50: 0.16 µM
Structure (SMILES): O=c1nc(-c2cccc(-c3nnn[nH]3)c2)c2ccc3ccccc3c2[nH]1 [Example 2, 4-[3-(1H-Tetrazol-5-yl)phenyl]-1H-benzo[h]quinazolin-2-one sodium salt]
